PubChem BioAssay (NCI)
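All cell lines were grown in 96-well plates and treated with compound for 48 hours. TGI denotes the concentration required for complete inhibition of growth.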

How the values were obtained:
Experiment in all cases: NCI-60 cell line screen, 48 h
CCRF-CEM leukemia = tested on: CCRF-CEM leukemia
K-562 leukemia = tested on: K-562 leukemia
SF-268 CNS = tested on: SF-268 CNS
SNB-19 CNS = tested on: SNB-19 CNS
HOP-92 NSCLC = tested on: HOP-92 NSCLC
CAKI-1 renal = tested on: CAKI-1 renal
NCI-H460 lung = tested on: NCI-H460 lung
SF-539 CNS = tested on: SF-539 CNS
SK-MEL-5 melanoma = tested on: SK-MEL-5 melanoma
HOP-62 NSCLC = tested on: HOP-62 NSCLC
OVCAR-3 ovarian = tested on: OVCAR-3 ovarian
EKVX NSCLC = tested on: EKVX NSCLC
SF-295 CNS = tested on: SF-295 CNS
DMS 273 small cell lung = tested on: DMS 273 small cell lung
LOX IMVI melanoma = tested on: LOX IMVI melanoma
LXFL 529 NSCLC = tested on: LXFL 529 NSCLC
KM12 colon = tested on: KM12 colon
SW-620 colon = tested on: SW-620 colon
M14 melanoma = tested on: M14 melanoma
DLD-1 colon = tested on: DLD-1 colon
UO-31 renal = tested on: UO-31 renal
OVCAR-8 ovarian = tested on: OVCAR-8 ovarian
UACC-62 melanoma = tested on: UACC-62 melanoma
SK-MEL-2 melanoma = tested on: SK-MEL-2 melanoma
M19-MEL melanoma = tested on: M19-MEL melanoma
HOP-18 NSCLC = tested on: HOP-18 NSCLC
786-0 renal = tested on: 786-0 renal
IGROV1 ovarian = tested on: IGROV1 ovarian
KM20L2 colon = tested on: KM20L2 colon
TK-10 renal = tested on: TK-10 renal
U251 CNS = tested on: U251 CNS
A549 NSCLC = tested on: A549 NSCLC
SK-MEL-28 melanoma = tested on: SK-MEL-28 melanoma
HCT-15 colon = tested on: HCT-15 colon
HCT-116 colon = tested on: HCT-116 colon
UACC-257 melanoma = tested on: UACC-257 melanoma
SNB-75 CNS = tested on: SNB-75 CNS
SK-OV-3 ovarian = tested on: SK-OV-3 ovarian
SR leukemia = tested on: SR leukemia
SN12C renal = tested on: SN12C renal
NCI-H23 lung = tested on: NCI-H23 lung
HT29 colon = tested on: HT29 colon
HL-60(TB) leukemia = tested on: HL-60(TB) leukemia
OVCAR-5 ovarian = tested on: OVCAR-5 ovarian
RXF 393 renal = tested on: RXF 393 renal
COLO 205 colon = tested on: COLO 205 colon
SNB-78 CNS = tested on: SNB-78 CNS
DMS 114 small cell lung = tested on: DMS 114 small cell lung
MOLT-4 leukemia = tested on: MOLT-4 leukemia
ACHN renal = tested on: ACHN renal
OVCAR-4 ovarian = tested on: OVCAR-4 ovarian
NCI-H522 lung = tested on: NCI-H522 lung
MALME-3M melanoma = tested on: MALME-3M melanoma
DU-145 prostate = tested on: DU-145 prostate
NCI/ADR-RES ovarian = tested on: NCI/ADR-RES ovarian
HS 578T breast = tested on: HS 578T breast
T-47D breast = tested on: T-47D breast
MDA-MB-435 = tested on: MDA-MB-435
RPMI-8226 leukemia = tested on: RPMI-8226 leukemia
HCC-2998 colon = tested on: HCC-2998 colon
PC-3 prostate = tested on: PC-3 prostate
MDA-N = tested on: MDA-N
MCF7 breast = tested on: MCF7 breast
MDA-MB-231 breast = tested on: MDA-MB-231 breast
A498 renal = tested on: A498 renal
BT-549 breast = tested on: BT-549 breast
NCI-H226 lung = tested on: NCI-H226 lung

C(=N\OCc1ccccc1)/c1ncccc1C1OCCO1
TGI (CCRF-CEM leukemia): > 100 µM | TGI (K-562 leukemia): > 100 µM | TGI (SF-268 CNS): > 100 µM | TGI (SNB-19 CNS): > 100 µM | TGI (HOP-92 NSCLC): > 100 µM | TGI (CAKI-1 renal): > 100 µM | TGI (NCI-H460 lung): > 100 µM | TGI (SF-539 CNS): > 100 µM | TGI (SK-MEL-5 melanoma): > 100 µM | TGI (HOP-62 NSCLC): > 100 µM | TGI (OVCAR-3 ovarian): > 100 µM | TGI (EKVX NSCLC): > 100 µM | TGI (SF-295 CNS): > 100 µM | TGI (DMS 273 small cell lung): > 100 µM | TGI (LOX IMVI melanoma): > 100 µM | TGI (LXFL 529 NSCLC): > 100 µM | TGI (KM12 colon): > 100 µM | TGI (SW-620 colon): > 100 µM | TGI (M14 melanoma): > 100 µM | TGI (DLD-1 colon): > 100 µM | TGI (UO-31 renal): > 100 µM | TGI (OVCAR-8 ovarian): > 100 µM | TGI (UACC-62 melanoma): > 100 µM | TGI (SK-MEL-2 melanoma): > 100 µM | TGI (M19-MEL melanoma): > 100 µM | TGI (HOP-18 NSCLC): > 100 µM | TGI (786-0 renal): > 100 µM | TGI (IGROV1 ovarian): > 100 µM | TGI (KM20L2 colon): > 100 µM | TGI (TK-10 renal): > 100 µM | TGI (U251 CNS): > 100 µM | TGI (A549 NSCLC): > 100 µM | TGI (SK-MEL-28 melanoma): > 100 µM | TGI (HCT-15 colon): > 100 µM | TGI (HCT-116 colon): > 100 µM | TGI (UACC-257 melanoma): > 100 µM | TGI (SNB-75 CNS): > 100 µM | TGI (SK-OV-3 ovarian): > 100 µM | TGI (SR leukemia): > 100 µM | TGI (SN12C renal): > 100 µM | TGI (NCI-H23 lung): > 100 µM | TGI (HT29 colon): > 100 µM | TGI (HL-60(TB) leukemia): > 100 µM | TGI (OVCAR-5 ovarian): > 100 µM | TGI (RXF 393 renal): > 100 µM | TGI (COLO 205 colon): > 100 µM | TGI (SNB-78 CNS): > 100 µM | TGI (DMS 114 small cell lung): > 100 µM | TGI (MOLT-4 leukemia): > 100 µM | TGI (ACHN renal): > 100 µM | TGI (OVCAR-4 ovarian): > 100 µM | TGI (NCI-H522 lung): > 100 µM | TGI (MALME-3M melanoma): > 100 µM

[Se]=P(c1ccccc1)(c1ccccc1)c1ccc(C(c2ccccc2)=P(c2ccccc2)(c2ccccc2)c2ccccc2)cc1
TGI (CCRF-CEM leukemia): 8.37 µM | TGI (K-562 leukemia): 3.33 µM | TGI (SF-268 CNS): 9.26 µM | TGI (SNB-19 CNS): 16 µM | TGI (HOP-92 NSCLC): 1.91 µM | TGI (CAKI-1 renal): 8.5 µM | TGI (NCI-H460 lung): 10.9 µM | TGI (SF-539 CNS): 17.8 µM | TGI (SK-MEL-5 melanoma): 1.64 µM | TGI (HOP-62 NSCLC): 4.33 µM | TGI (DU-145 prostate): 14.5 µM | TGI (OVCAR-3 ovarian): 4.22 µM | TGI (EKVX NSCLC): 15.8 µM | TGI (SF-295 CNS): 10.2 µM | TGI (LOX IMVI melanoma): 2.48 µM | TGI (NCI/ADR-RES ovarian): > 54.1 µM | TGI (HS 578T breast): 5.24 µM | TGI (KM12 colon): 1.8 µM | TGI (SW-620 colon): 19.2 µM | TGI (M14 melanoma): 24.5 µM | TGI (UO-31 renal): 20.1 µM | TGI (OVCAR-8 ovarian): 8.02 µM | TGI (UACC-62 melanoma): 3.85 µM | TGI (T-47D breast): 7.07 µM | TGI (SK-MEL-2 melanoma): 6.21 µM | TGI (786-0 renal): 10.8 µM | TGI (IGROV1 ovarian): 11.5 µM | TGI (TK-10 renal): 6.88 µM | TGI (MDA-MB-435): 3.46 µM | TGI (U251 CNS): 5.25 µM | TGI (RPMI-8226 leukemia): 8.05 µM | TGI (A549 NSCLC): 13 µM | TGI (HCC-2998 colon): 11.6 µM | TGI (PC-3 prostate): 9.34 µM | TGI (SK-MEL-28 melanoma): 20.2 µM | TGI (HCT-15 colon): 18.8 µM | TGI (MDA-N): 4.57 µM | TGI (HCT-116 colon): 4.7 µM | TGI (UACC-257 melanoma): 5.59 µM | TGI (SNB-75 CNS): 3.49 µM | TGI (MCF7 breast): 2.93 µM | TGI (SK-OV-3 ovarian): 12.1 µM | TGI (SR leukemia): > 33.3 µM | TGI (SN12C renal): 10.2 µM | TGI (NCI-H23 lung): 13.9 µM | TGI (HT29 colon): 2.17 µM | TGI (MDA-MB-231 breast): 7.33 µM | TGI (HL-60(TB) leukemia): 1.06 µM | TGI (A498 renal): 9.4 µM | TGI (OVCAR-5 ovarian): 18.7 µM | TGI (RXF 393 renal): 10.9 µM | TGI (BT-549 breast): 6.56 µM | TGI (COLO 205 colon): 0.659 µM | TGI (MOLT-4 leukemia): 12.6 µM | TGI (NCI-H226 lung): 11.5 µM | TGI (ACHN renal): 8.06 µM | TGI (OVCAR-4 ovarian): > 33.1 µM | TGI (NCI-H522 lung): 1.7 µM | TGI (MALME-3M melanoma): 2.51 µM

OCCSCc1ccccc1
TGI (CCRF-CEM leukemia): > 100 µM | TGI (K-562 leukemia): > 100 µM | TGI (SF-268 CNS): > 100 µM | TGI (SNB-19 CNS): > 100 µM | TGI (HOP-92 NSCLC): > 100 µM | TGI (CAKI-1 renal): > 100 µM | TGI (NCI-H460 lung): > 100 µM | TGI (SF-539 CNS): > 100 µM | TGI (SK-MEL-5 melanoma): > 100 µM | TGI (HOP-62 NSCLC): > 100 µM | TGI (DU-145 prostate): > 100 µM | TGI (OVCAR-3 ovarian): > 100 µM | TGI (EKVX NSCLC): > 100 µM | TGI (SF-295 CNS): > 100 µM | TGI (LOX IMVI melanoma): > 100 µM | TGI (NCI/ADR-RES ovarian): > 100 µM | TGI (HS 578T breast): > 100 µM | TGI (KM12 colon): > 100 µM | TGI (SW-620 colon): > 100 µM | TGI (M14 melanoma): > 100 µM | TGI (UO-31 renal): > 100 µM | TGI (OVCAR-8 ovarian): > 100 µM | TGI (UACC-62 melanoma): > 100 µM | TGI (T-47D breast): > 100 µM | TGI (SK-MEL-2 melanoma): > 100 µM | TGI (786-0 renal): > 100 µM | TGI (IGROV1 ovarian): > 100 µM | TGI (TK-10 renal): > 100 µM | TGI (MDA-MB-435): > 100 µM | TGI (U251 CNS): > 100 µM | TGI (RPMI-8226 leukemia): > 100 µM | TGI (A549 NSCLC): > 100 µM | TGI (HCC-2998 colon): > 100 µM | TGI (PC-3 prostate): > 100 µM | TGI (SK-MEL-28 melanoma): > 100 µM | TGI (HCT-15 colon): > 100 µM | TGI (MDA-N): > 100 µM | TGI (HCT-116 colon): > 100 µM | TGI (UACC-257 melanoma): > 100 µM | TGI (SNB-75 CNS): > 100 µM | TGI (MCF7 breast): > 100 µM | TGI (SK-OV-3 ovarian): > 100 µM | TGI (SR leukemia): > 100 µM | TGI (SN12C renal): > 100 µM | TGI (NCI-H23 lung): > 100 µM | TGI (HT29 colon): > 100 µM | TGI (MDA-MB-231 breast): > 100 µM | TGI (HL-60(TB) leukemia): > 100 µM | TGI (A498 renal): > 100 µM | TGI (OVCAR-5 ovarian): > 100 µM | TGI (RXF 393 renal): > 100 µM | TGI (BT-549 breast): > 100 µM | TGI (COLO 205 colon): > 100 µM | TGI (MOLT-4 leukemia): > 100 µM | TGI (NCI-H226 lung): > 100 µM | TGI (ACHN renal): > 100 µM | TGI (OVCAR-4 ovarian): > 100 µM | TGI (NCI-H522 lung): > 100 µM | TGI (MALME-3M melanoma): > 100 µM
